≈ marks a conversion by molar mass, not a printed value.
Experiments:
Type in all cases: functional
Bacteria [1] = assay: In vitro antibacterial activity was determined by 2 fold serial agar dilution method with multilocular device in gram negative bacteria
[2] = In vitro antibacterial activity was determined by 2 fold serial agar dilution method in gram positive resistant bacteria
[3] = In vitro antibacterial activity was determined by 2 fold serial agar dilution method with multilocular device in gram positive bacteria
Bacteria [4] = assay: In vitro antibacterial activity was determined by 2 fold serial agar dilution method in gram negative resistant bacteria

## CC1=C(C(=O)O)N2C(=O)[C@@H](NC(=O)C(c3ccccc3)N(C)N)C2SC1 (stereo partly specified)
Bacteria [1]
  MIC: 100 µg/mL (≈ 266 µM)
[2]
  MIC: 50 µg/mL (≈ 133 µM)
[3]
  MIC: 6.74 µg/mL (≈ 17.9 µM)
Bacteria [4]
  MIC: > 100 µg/mL

## NNC(C(=O)N[C@@H]1C(=O)N2C(C(=O)O)=C(Cl)CSC12)c1ccccc1 (stereo partly specified)
Bacteria [1]
  MIC: 21.4 µg/mL (≈ 55.9 µM)
[2]
  MIC: 31.4 µg/mL (≈ 82 µM)
[3]
  MIC: 1.33 µg/mL (≈ 3.47 µM)
Bacteria [4]
  MIC: 50 µg/mL (≈ 131 µM)

## CC(=O)OCC1=C(C(=O)O)N2C(=O)[C@@H](NC(=O)C(c3ccccc3)N(C)N)C2SC1 (stereo partly specified)
Bacteria [1]
  MIC: 54.5 µg/mL (≈ 125 µM)
[2]
  MIC: 24.9 µg/mL (≈ 57.3 µM)
[3]
  MIC: 1.33 µg/mL (≈ 3.06 µM)
Bacteria [4]
  MIC: > 100 µg/mL

## CC1=C(C(=O)O)N2C(=O)[C@@H](NC(=O)C(NN)c3ccccc3)C2SC1 (stereo partly specified)
Bacteria [1]
  MIC: > 100 µg/mL
[2]
  MIC: 62.9 µg/mL (≈ 174 µM)
[3]
  MIC: 12.5 µg/mL (≈ 34.5 µM)

## CC(=O)OCC1=C(C(=O)O)N2C(=O)[C@@H](NC(=O)C(NN)c3ccccc3)C2SC1 (stereo partly specified)
Bacteria [1]
  MIC: 73.4 µg/mL (≈ 175 µM)
[2]
  MIC: 31.5 µg/mL (≈ 74.9 µM)
[3]
  MIC: 1.68 µg/mL (≈ 4 µM)
Bacteria [4]
  MIC: > 100 µg/mL

## N[C@@H](C(=O)N[C@@H]1C(=O)N2C(C(=O)O)=C(Cl)CS[C@H]12)c1ccccc1 [CEFACLOR ANHYDROUS]
Bacteria [1]
  MIC: 1 µg/mL (≈ 2.72 µM)
[2]
  MIC: 15.7 µg/mL (≈ 42.7 µM)
[3]
  MIC: 0.16 µg/mL (≈ 0.435 µM)
Bacteria [4]
  MIC: 7.8 µg/mL (≈ 21.2 µM)

## CC1=C(C(=O)O)N2C(=O)[C@@H](NC(=O)[C@H](N)c3ccccc3)[C@H]2SC1 [CEPHALEXIN ANHYDROUS]
Bacteria [1]
  MIC: 5.7 µg/mL (≈ 16.4 µM)
[2]
  MIC: 24.9 µg/mL (≈ 71.7 µM)
[3]
  MIC: 0.58 µg/mL (≈ 1.67 µM)
Bacteria [4]
  MIC: 7.8 µg/mL (≈ 22.5 µM)

## CC(=O)OCC1=C(C(=O)O)N2C(=O)[C@@H](NC(=O)[C@H](N)c3ccccc3)[C@H]2SC1 [CEPHALOGLYCIN]
Bacteria [1]
  MIC: 8.5 µg/mL (≈ 21 µM)
[2]
  MIC: 19.8 µg/mL (≈ 48.8 µM)
[3]
  MIC: 1.33 µg/mL (≈ 3.28 µM)
Bacteria [4]
  MIC: 79.3 µg/mL (≈ 196 µM)

From ChEMBL document CHEMBL1122399, “Synthesis and antibacterial activities of new (alpha-hydrazinobenzyl)cephalosporins” (1983)
